Experimental findings from patent US9896442B2, “Antifungal treatment” (Wisconsin Alumni Research Foundation, priority 2010, dated 2018) are described below.

Data set [1] concerns Drk1 reporter strain. Description: Drk1 reporter strain corroboration. In kind it is cell-based. An excerpt:
The results of the Hik1 histidine kinase reporter strain were corroborated with a Drk1 reporter strain, especially regarding compounds 13 and 33. Dr. David Andes, Dr. Nancy Keller, and the clinical microbiology laboratory at the University of Wisconsin Hospital provided the microbial strains used in this study (9-12).

For data set [2], the system named is Aspergillus fumigatus. Description: Agar disk diffusion. In kind it is cell-based. To be noted: disks containing 1 μg of test compound; FIG. 4. On the procedure:
Small molecule activity against the fungal pathogens Candida albicans and Aspergillus fumigatus was evaluated using an agar disk diffusion assay. Yeast (1×10^4) from an overnight culture of C. albicans was suspended in 600 μl of top agar (1% yeast extract (ThermoFisher), 2% peptone (ThermoFisher), 2% dextrose (Sigma), and 0.5% agar (Fisher)). This suspension was spread and allowed to solidify on 5 ml of base agar (YPD media containing 2% agar) in the well of a 6-well plate. Disks (6 mm AA, Whatman Inc., Piscataway, N.J., Cat#2017-006) were aseptically placed on a sterile Petri dish lid. Compounds selected from stage II (1 μg total) were each suspended in 100% dimethyl sulfoxide (DMSO) to a total volume of 5 μl, added to separate disks, and allowed to dry for five minutes. Fludioxonil (Sigma) and DMSO-only disks served as positive and negative controls, respectively. Disks were placed into separate wells and incubated at room temperature for 48 hours. Antifungal activity was determined based on the size of the zone of inhibition of C. albicans growth.
Activity against A. fumigatus was determined following the aforementioned disk diffusion assay. The protocol only differed in that 6.0×10^5 conidia were used instead of yeast, and the plates were incubated at 37° C. for 48 hours instead of room temperature (FIG. 4).
A general note: A growth-free zone around the sample is the usual read-out of agar diffusion tests.

In data set [3] the test system is C. gattii. As to the kind of experiment: Microbroth dilution (MIC), CLSI M27. In kind it is cell-based. The following applies: FIG. 5G. Here is the method:
(§1) Clinical and Laboratory Standards Institute (CLSI) protocol M27 was used to quantify the minimum inhibitory concentration (MIC) of compounds 13 and 33 against yeast fungal pathogens (13). Briefly, compounds were solubilized in 100% DMSO and serially diluted two-fold in a 96 well plate in 100 μl of RPMI medium. A 100 μl aliquot of RPMI medium containing 3×10^3 yeast/ml of an overnight culture was then added to each well. Medium, medium+yeast, and medium+yeast+DMSO wells were prepared as controls. Each well was prepared in triplicate. The plates were incubated at 35° C. for 48 hours. The MIC concentration was defined as the concentration at which no growth was visible by eye and the results verified by plating on YPD agar. The experiment was performed in duplicate. MIC concentrations were also defined against filamentous fungi using the CLSI protocol M38 (14). This protocol only differed from M27 in that 100 μl of medium containing 4×10^5 spores/ml were added instead of yeast (FIG. 5A-I).

The subject of data set [4] is C. glabrata. Description: Microbroth dilution (MIC), CLSI M27. In kind it is cell-based. To be noted: FIG. 5E. Here is the method: as §1
(Dilution methods test growth across graded concentrations, often in twofold steps.)

Data set [5] concerns C. krusei. As to the kind of experiment: Microbroth dilution (MIC), CLSI M27. To be noted: FIG. 5D. In kind it is cell-based. Here is the method: as §1
The test system of data set [6] is C. lusitaniae. As to the kind of experiment: Microbroth dilution (MIC), CLSI M27. In kind it is cell-based. The following applies: FIG. 5C. On the procedure:
as §1

Data set [7] concerns Candida albicans. As to the kind of experiment: Microbroth dilution (MIC), CLSI M27. The class given is cell-based. The following applies: FIG. 5A. On the procedure: as §1
Data set [8] has as its system Cryptococcus neoformans. Description: Microbroth dilution (MIC), CLSI M27. The following applies: FIG. 5F. The class given is cell-based. On the procedure: as §1
Data set [9] relates to C. albicans resistant to conventional antifungals fluconazole and micafungin. As to the kind of experiment: Microbroth dilution (MIC), CLSI M27. In kind it is cell-based, Candida albicans. The following applies: FIG. 5B. On the procedure: as §1
The subject of data set [10] is wild type Aspergillus fumigatus. As to the kind of experiment: Microbroth dilution (MIC), CLSI M38. To be noted: FIG. 5H. The class given is cell-based. On the procedure:
as §1

For data set [11], the system named is drug resistant A. fumigatus. As to the kind of experiment: Microbroth dilution (MIC), CLSI M38. The following applies: FIG. 5I. In kind it is cell-based, Aspergillus fumigatus. Here is the method: as §1
For data set [12], the system named is Aspergillus flavus. Description: Microbroth dilution against plant fungal pathogen. The following applies: four isolates of A. flavus; FIG. 8. The class given is cell-based. Here is the method: as §1, with “M38” left out, “5A-I). […] Briefly, the MICs of compounds 13 and 33 were determined for each of the 4 isolates and compared with the conventional antifungal compound, voriconazole (available from Sigma). […]” for “5A-I).”

The subject of data set [13] is Candida albicans biofilm. As to the kind of experiment: In vitro biofilm drug synergy (checkerboard, XTT). The class given is cell-based. To be noted: for Synergy with Fluconazole by fractional inhibitory concentration (FIC): FIC from EC25, values ≦0.5 indicate synergy, FIG. 9; for growth reduction: alone and in combination. Here is the method:
Candida biofilms were formed in 96-well flat-bottom polystyrene plates (Fischer) as described previously ([…], Crawford K, Andes D R. Optimizing a Candida Biofilm Microtiter Plate Model for Measurement of Antifungal Susceptibility by XTT Assay. J. Clin. Microbiol. 2011 Jan., 2). Cells from an overnight culture grown in YPD shaking at 37° C. were enumerated by hemocytometer and suspended in RPMI-MOPS (Fisher) at a concentration of 10^6 cells/ml. A 100 μl of inoculum was added to each well of the plate. After 6 h incubation at 37° C., biofilms were gently washed twice with phosphate-buffered saline (PBS) to remove unattached cells. […] The ranges of concentrations of the fluconazole used included the standard doses given to humans. After overnight incubation at 37° C., biofilms were washed twice with PBS. Measurement of biofilm cell metabolic activity using the XTT reduction assay was performed as previously described ([…], Crawford K, Andes D R. Optimizing a Candida Biofilm Microtiter Plate Model for Measurement of Antifungal Susceptibility by XTT Assay. J. Clin. Microbiol. 2011 January, […], and Andes D. Synergistic Effect of Calcineurin Inhibitors and Fluconazole against Candida albicans Biofilms. Antimicrob Agents Chemother. 2008 March; 52(3): 1127-1132). Briefly, 90 μl of XTT at 1 mg/ml (Sigma) and 10 μl phenazine methosulfate at 320 μg/ml (Sigma) were added to each well, and the plate was incubated at 37° C. for 2 h. Viable cell number was assessed using the Absorbance at 492nm measured using an automated plate reader. Assays were performed in duplicate. The drug concentration resulting in a 25% reduction in optical density compared to the no-drug control wells was determined (EC25).
(In general: Formazan colour is commonly taken as a measure of viable cells.)

Data set [14] has as its system human red blood cells.
Description: Briefly, human red blood cells (RBCs) were isolated via FICOLL® (Sigma) gradient centrifugation and stored on ice. The RBCs were pelleted by centrifugation and washed with PBS a total of three times. A 2% RBC suspension in PBS was made and stored on ice for less than one hour. Drugs were suspended in DMSO and two-fold serial dilutions were prepared in PBS with a total volume of 100 μl in a 96-well round-bottom plate in triplicate. Wells containing PBS and Triton X-100 (Sigma) were used as negative and positive controls of hemolysis, respectively. A 100 μl aliquot of the 2% RBC suspension was then added to each well. The plate was then incubated at 37° C. for one hour. The plate was then centrifuged at 2,500 rpm for five minutes to pellet the RBCs. A 50 μl aliquot of the supernatant was transferred to a fresh 96-well plate, and absorbance at 405 nm was measured using an automated plate reader to quantify heme release.
Data set [15] has as its system Hik1 Saccharomyces. As to the kind of experiment: Hik1 Saccharomyces reporter strain growth assay (small molecule screen). In kind it is cell-based. The following applies: FIG. 2. From the text: To identify putative antifungals that act directly or indirectly through histidine kinase homologs of Drk1, we used a high throughput growth assay that uses a yeast reporter strain expressing a heterologous two-component sensor kinase (Hik1) to identify compounds that target the kinase and inhibit/kill the yeast. Hik1 and Drk1 are very closely related having near 80% amino acid sequence identity (FIG. 1). The Saccharomyces reporter contained an episomal plasmid with the hybrid histidine kinase Hik1 under the control of the galactose promoter (8). The Saccharomyces strain was provided by the Osada lab from RIKEN (Institute of Physical and Chemical Research, 2-1 Hirosawa, Wako, Saitama, 351-0198, Japan). It was used for screening initially. […]

Consider `O=[N+]([O-])c1ccc(/C=C/c2ccc([N+](=O)[O-])o2)cc1` [Compound 13], for which, in data set [1], the “Hik1 reporter strain results corroborated with Drk1 reporter strain” value was “corroborated”. Moreover, the “Inhibition of Aspergillus growth (zone of inhibition)” value (“Inhibition of Aspergillus growth” below) in [2] is “inhibited growth”. In addition, the “Activity (MIC, cumulative inhibition)” value in data set [3], in data set [4], in data set [5], in data set [6], in [7] and in data set [8] was “active” each time. In addition, the “Activity (MIC, cumulative inhibition)” value in [9], in data set [10] and in data set [11] was “active” throughout. In addition, the “Cumulative inhibition of Aspergillus flavus” value in [12] is given as “inhibition”. For the same compound, the “Synergy with Fluconazole by fractional inhibitory concentration (FIC)” value in [13] is listed as “synergy”. Further, the growth reduction in data set [13] (FIG. 9A, compound 13 experiment: fluconazole at 62.5 ug/ml, 13 at 0.8 ug/ml) amounted to 18%. For the same compound, the “Hemolysis (heme release, absorbance at 405 nm) compared with amphotericin B” value in [14] was “less hemolytic”.

For the compound `CSc1nnc(Sc2ncc([N+](=O)[O-])s2)s1` [Compound 33], in data set [1], the “Hik1 reporter strain results corroborated with Drk1 reporter strain” value is reported as “corroborated”. Also, the “Inhibition of Aspergillus growth” value in [2] is listed as “inhibited growth”. The “Activity (MIC, cumulative inhibition)” value in [3], in data set [4], in data set [5], in data set [6], in data set [7] and in [8] was “active” each time. In addition, the “Activity (MIC, cumulative inhibition)” value in data set [9], in data set [10] and in data set [11] was “active” in each case. Also, in [12], the “Cumulative inhibition of Aspergillus flavus” value is given as “inhibition”. Besides, the “Synergy with Fluconazole by fractional inhibitory concentration (FIC)” value in [13] is recorded as “synergy”. In addition, in [13] (FIG. 9B, compound 33 experiment: fluconazole at 62.5 ug/ml, 33 at 1.6 ug/ml), the growth reduction entry is recorded as “approximately 9%”. In addition, the “Hemolysis (heme release, absorbance at 405 nm) compared with amphotericin B” value in data set [14] is on record as “less hemolytic”.

With `C[C@@H]1[C@H](O)[C@@H](C)/C=C/C=C/C=C/C=C/C=C/C=C/C=C/[C@H](O[C@@H]2O[C@H](C)[C@@H](O)[C@H](N)[C@@H]2O)C[C@@H]2O[C@](O)(C[C@@H](O)C[C@@H](O)[C@H](O)CC[C@@H](O)C[C@@H](O)CC(=O)O[C@H]1C)C[C@H](O)[C@H]2C(=O)O` [amphotericin B, reference compound], the “Inhibition of Aspergillus growth” value in [2] is “created zones of inhibition”.

On to `N#Cc1c[nH]cc1-c1cccc2c1OC(F)(F)O2` [fludioxonil], for which, in data set [15] (galactose (Hik1 induced)), the “Growth of Hik1 Saccharomyces on galactose with fludioxonil” value is “inhibited Saccharomyces growth”. Further, the “Growth of Hik1 Saccharomyces in glucose with fludioxonil” value in [15] (glucose, which does not induce Hik1) was “uninhibited”. The “Inhibition of Aspergillus growth” value in data set [2] is listed as “created zones of inhibition”.
